Laboratory results taken from patent publication US20260146035A1, “FUSED BICYCLIC COMPOUNDS AND THEIR USE AS MER AND AXL INHIBITORS” (DONG-A ST CO., LTD., priority 2022, published 2026).
Values belong to the molecule of their own block, whether it stands above or below them.

Columns and labels:
human AXL (473-end) = molecular target: T1, human AXL (473-end) (Homo sapiens, UniProt P30530); test: HTRF kinase activity biochemical assay, AXL; details: 10 μM ATP, 30 minutes pre-incubation
T1 construct: human AXL (473-end); purchased SignalChem, Canada
T1 sequence (P30530 473-894 limits assumed): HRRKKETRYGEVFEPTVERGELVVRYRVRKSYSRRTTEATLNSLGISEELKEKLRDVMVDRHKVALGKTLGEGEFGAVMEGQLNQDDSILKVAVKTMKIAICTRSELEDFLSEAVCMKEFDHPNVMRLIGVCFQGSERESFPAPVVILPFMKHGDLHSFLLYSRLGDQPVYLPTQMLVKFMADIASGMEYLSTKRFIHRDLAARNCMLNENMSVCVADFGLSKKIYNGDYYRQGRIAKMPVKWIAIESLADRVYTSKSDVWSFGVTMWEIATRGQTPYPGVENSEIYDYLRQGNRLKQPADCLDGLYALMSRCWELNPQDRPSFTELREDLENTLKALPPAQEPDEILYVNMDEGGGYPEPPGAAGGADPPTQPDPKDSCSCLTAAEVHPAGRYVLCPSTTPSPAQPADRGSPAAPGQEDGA
Method: (§1) For the SAR (structure-activity relationship) and compound screening, HTRF (Homogeneous Time Resolved Fluorescence) kinase activity assay was employed for all MER, AXL and TYRO3 kinases using Cisbio HTRF® KinEASE™-TK kit (Cisbio, USA). The kit included biotin-labeled TK substrate, streptavidin-XL665, Eu3+-cryptate-labeled TK antibody and HTRF® Detection buffer. There are two main steps in the kinase assay: kinase reaction and detection of phosphorylated substrate. The reaction was carried out in white low volume 384-well plate (Corning, USA) with 25 nL compound in dimethyl sulfoxide in each well. […] After 1 hour incubation at room temperature, the fluorescence intensity was measured with Envision[…] plate reader (PerkinElmer, USA). Upon excitation at 340 nm by UV, the energy from Eu3+ donor of the antibody is transferred to the FRET acceptor XL665, and […] emits light at 665 nm.

human MER (528-end) = molecular target: T2, human MER (528-end) (Homo sapiens, UniProt Q12866); test: HTRF kinase activity biochemical assay, MER; details: 10 μM ATP, 30 minutes pre-incubation; read-out: HTRF MERTK IC50
T2 construct: human MER (528-end); purchased Camnabio, Japan
T2 sequence (Q12866 528-999 limits assumed): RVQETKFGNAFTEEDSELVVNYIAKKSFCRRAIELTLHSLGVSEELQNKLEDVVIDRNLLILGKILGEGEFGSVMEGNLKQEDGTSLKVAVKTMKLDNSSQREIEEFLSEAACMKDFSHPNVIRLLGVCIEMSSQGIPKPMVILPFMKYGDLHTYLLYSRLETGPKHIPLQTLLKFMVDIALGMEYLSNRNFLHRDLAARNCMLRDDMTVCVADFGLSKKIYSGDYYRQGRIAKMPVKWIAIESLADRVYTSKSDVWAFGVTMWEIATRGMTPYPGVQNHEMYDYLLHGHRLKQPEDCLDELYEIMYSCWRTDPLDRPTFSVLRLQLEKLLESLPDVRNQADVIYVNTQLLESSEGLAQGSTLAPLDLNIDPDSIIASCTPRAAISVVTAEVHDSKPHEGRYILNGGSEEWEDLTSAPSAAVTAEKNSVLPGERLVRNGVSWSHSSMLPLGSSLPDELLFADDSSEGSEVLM
Method: as §1

human TYRO3 (455-end) = molecular target: T3, human TYRO3 (455-end) (Homo sapiens, UniProt Q06418); test: HTRF kinase activity biochemical assay, TYRO3; details: 10 μM ATP, 30 minutes pre-incubation; read-out: HTRF TYRO IC50
T3 construct: TYRO3 (455-end); purchased SignalChem, Canada
T3 sequence (Q06418 455-890 limits assumed): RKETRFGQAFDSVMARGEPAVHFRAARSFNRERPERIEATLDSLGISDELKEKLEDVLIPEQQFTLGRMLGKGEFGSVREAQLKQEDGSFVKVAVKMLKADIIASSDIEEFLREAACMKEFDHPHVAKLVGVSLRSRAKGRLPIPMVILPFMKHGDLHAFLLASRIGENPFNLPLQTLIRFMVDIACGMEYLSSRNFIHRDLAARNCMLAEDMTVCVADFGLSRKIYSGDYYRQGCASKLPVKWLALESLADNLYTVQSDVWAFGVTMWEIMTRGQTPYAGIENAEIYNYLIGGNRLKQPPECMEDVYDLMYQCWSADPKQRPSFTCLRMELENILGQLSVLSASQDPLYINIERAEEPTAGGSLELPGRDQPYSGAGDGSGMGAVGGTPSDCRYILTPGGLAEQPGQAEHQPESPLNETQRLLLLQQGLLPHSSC
Method: as §1

SMILES: CN(C)CCC(=O)N1Cc2ccc(-c3ccc(CO[C@H]4CCC[C@@H]4NC(=O)c4cc(-c5cnn(C)c5)cnc4N)cc3)cc2C1 [Example 1, 2-amino-N-{(1S,2S)-2-[(4-{2-[3-(dimethylamino)propanoyl]-2,3-dihydro-1H-isoindol-5-yl}phenyl)methoxy]cyclopentyl}-5-(1-methyl-1H-pyrazol-4-yl)pyridine-3-carboxamide]
IC50 (human AXL (473-end)): > 1000 nM | IC50 (human MER (528-end)): 100 to 1000 nM | IC50 (human TYRO3 (455-end)): > 1000 nM

SMILES: CN(C)CC(=O)N1CCc2cc(-c3ccc(CO[C@H]4CCC[C@@H]4NC(=O)c4cc(-c5cnn(C)c5)cnc4N)cc3)ccc21 [Example 2, 2-amino-N-{(1S,2S)-2-[(4-{1-[(dimethylamino)acetyl]-2,3-dihydro-1H-indol-5-yl}phenyl)methoxy]cyclopentyl}-5-(1-methyl-1H-pyrazol-4-yl)pyridine-3-carboxamide]
IC50 (human AXL (473-end)): 100 to 1000 nM | IC50 (human MER (528-end)): 100 to 1000 nM | IC50 (human TYRO3 (455-end)): > 1000 nM

SMILES: CN1C(=O)Cc2cc(-c3ccc(CO[C@H]4CCC[C@@H]4NC(=O)c4cc(-c5cnn(C)c5)cnc4N)cc3)ccc21 [Example 3, 2-amino-N-[(1S,2S)-2-{[4-(1-methyl-2-oxo-2,3-dihydro-1H-indol-5-yl)phenyl]methoxy}cyclopentyl]-5-(1-methyl-1H-pyrazol-4-yl)pyridine-3-carboxamide]
IC50 (human AXL (473-end)): 100 to 1000 nM | IC50 (human MER (528-end)): 10 to 100 nM | IC50 (human TYRO3 (455-end)): > 1000 nM

SMILES: Cn1cc(-c2cnc(N)c(C(=O)N[C@H]3CCC[C@@H]3OCc3ccc(-c4ccc5c(ccn5C5CCN(C(=O)OC(C)(C)C)CC5)c4)cc3)c2)cn1 [Example 4, tert-butyl 4-{5-[4-({[(1S,2S)-2-{[2-amino-5-(1-methyl-1H-pyrazol-4-yl)pyridine-3-carbonyl]amino}cyclopentyl]oxy}methyl)phenyl]-1H-indol-1-yl}piperidine-1-carboxylate]
IC50 (human AXL (473-end)): 100 to 1000 nM | IC50 (human MER (528-end)): > 1000 nM | IC50 (human TYRO3 (455-end)): > 1000 nM

SMILES: CN1CCC(c2c[nH]c3cc(-c4ccc(CO[C@H]5CCC[C@@H]5NC(=O)c5cc(-c6cnn(C)c6)cnc5N)cc4)ccc23)CC1 [Example 15, 2-amino-N-[(1S,2S)-2-({4-[3-(1-methylpiperidin-4-yl)-1H-indol-6-yl]phenyl}methoxy)cyclopentyl]-5-(1-methyl-1H-pyrazol-4-yl)pyridine-3-carboxamide]
IC50 (human AXL (473-end)): 100 to 1000 nM | IC50 (human MER (528-end)): 10 to 100 nM | IC50 (human TYRO3 (455-end)): > 1000 nM

SMILES: Cn1cc(-c2cnc(N)c(C(=O)N[C@H]3COC[C@@H]3OCc3ccc(-c4ccc5c(ccn5C)c4)cc3)c2)cn1 [Example 16, 2-amino-N-[(3S,4R)-4-{[4-(1-methyl-1H-indol-5-yl)phenyl]methoxy}oxolan-3-yl]-5-(1-methyl-1H-pyrazol-4-yl)pyridine-3-carboxamide]
IC50 (human AXL (473-end)): 10 to 100 nM | IC50 (human MER (528-end)): 10 to 100 nM | IC50 (human TYRO3 (455-end)): > 1000 nM

Further lines, results first:

IC50 (human AXL (473-end)): < 10 nM | IC50 (human MER (528-end)): < 10 nM | IC50 (human TYRO3 (455-end)): 100 to 1000 nM
SMILES: Cn1cc(-c2cnc(N)c(C(=O)N[C@H]3CCC[C@@H]3OCc3ccc(-c4ccc5c(ccn5C5CCNCC5)c4)cc3)c2)cn1 [Example 5, 2-amino-5-(1-methyl-1H-pyrazol-4-yl)-N-[(1S,2S)-2-({4-[1-(piperidin-4-yl)-1H-indol-5-yl]phenyl}methoxy)cyclopentyl]pyridine-3-carboxamide]

IC50 (human AXL (473-end)): < 10 nM | IC50 (human MER (528-end)): < 10 nM | IC50 (human TYRO3 (455-end)): 100 to 1000 nM
SMILES: CN1CCC(n2ccc3cc(-c4ccc(CO[C@H]5CCC[C@@H]5NC(=O)c5cc(-c6cnn(C)c6)cnc5N)cc4)ccc32)CC1 [Example 6, 2-amino-N-[(1S,2S)-2-({4-[1-(1-methylpiperidin-4-yl)-1H-indol-5-yl]phenyl}methoxy)cyclopentyl]-5-(1-methyl-1H-pyrazol-4-yl)pyridine-3-carboxamide]

IC50 (human AXL (473-end)): < 10 nM | IC50 (human MER (528-end)): < 10 nM | IC50 (human TYRO3 (455-end)): 100 to 1000 nM
SMILES: Cn1cc(-c2cnc(N)c(C(=O)N[C@H]3CCC[C@@H]3OCc3ccc(-c4ccc5c(ccn5C5CCN(CCO)CC5)c4)cc3)c2)cn1 [Example 7, 2-amino-N-{(1S,2S)-2-[(4-{1-[1-(2-hydroxyethyl)piperidin-4-yl]-1H-indol-5-yl}phenyl)methoxy]cyclopentyl}-5-(1-methyl-1H-pyrazol-4-yl)pyridine-3-carboxamide]

IC50 (human AXL (473-end)): 10 to 100 nM | IC50 (human MER (528-end)): < 10 nM | IC50 (human TYRO3 (455-end)): > 1000 nM
SMILES: CN(C)CC(=O)NC1Cc2ccc(-c3ccc(CO[C@H]4CCC[C@@H]4NC(=O)c4cc(-c5cnn(C)c5)cnc4N)cc3)cc2C1 (stereo partly drawn) [Example 9, 2-amino-N-{(1S,2S)-2-[(4-{2-[2-(dimethylamino)acetamido]-2,3-dihydro-1H-inden-5-yl}phenyl)methoxy]cyclopentyl}-5-(1-methyl-1H-pyrazol-4-yl)pyridine-3-carboxamide]

IC50 (human AXL (473-end)): 10 to 100 nM | IC50 (human MER (528-end)): < 10 nM | IC50 (human TYRO3 (455-end)): > 1000 nM
SMILES: CN1CCC(C(=O)NC2Cc3ccc(-c4ccc(CO[C@H]5CCC[C@@H]5NC(=O)c5cc(-c6cnn(C)c6)cnc5N)cc4)cc3C2)CC1 (stereo partly drawn) [Example 10, 2-amino-N-{(1S,2S)-2-[(4-{2-[(1-methylpiperidine-4-carbonyl)amino]-2,3-dihydro-1H-inden-5-yl}phenyl)methoxy]cyclopentyl}-5-(1-methyl-1H-pyrazol-4-yl)pyridine-3-carboxamide]

IC50 (human AXL (473-end)): 10 to 100 nM | IC50 (human MER (528-end)): < 10 nM | IC50 (human TYRO3 (455-end)): > 1000 nM
SMILES: CN1CC(C(=O)NC2Cc3ccc(-c4ccc(CO[C@H]5CCC[C@@H]5NC(=O)c5cc(-c6cnn(C)c6)cnc5N)cc4)cc3C2)C1 (stereo partly drawn) [Example 11, 2-amino-N-{(1S,2S)-2-[(4-{2-[(1-methylazetidine-3-carbonyl)amino]-2,3-dihydro-1H-inden-5-yl}phenyl)methoxy]cyclopentyl}-5-(1-methyl-1H-pyrazol-4-yl)pyridine-3-carboxamide]

IC50 (human AXL (473-end)): < 10 nM | IC50 (human MER (528-end)): < 10 nM | IC50 (human TYRO3 (455-end)): 10 to 100 nM
SMILES: CN1CCC(N2CC(C)(C)c3cc(-c4ccc(CO[C@H]5CCC[C@@H]5NC(=O)c5cc(-c6cnn(C)c6)cnc5N)cc4)ccc32)CC1 [Example 12, 2-amino-N-[(1S,2S)-2-({4-[3,3-dimethyl-1-(1-methylpiperidin-4-yl)-2,3-dihydro-1H-indol-5-yl]phenyl}methoxy)cyclopentyl]-5-(1-methyl-1H-pyrazol-4-yl)pyridine-3-carboxamide]

IC50 (human AXL (473-end)): < 10 nM | IC50 (human MER (528-end)): < 10 nM | IC50 (human TYRO3 (455-end)): 10 to 100 nM
SMILES: Cn1cc(-c2cnc(N)c(C(=O)N[C@H]3CCC[C@@H]3OCc3ccc(-c4ccc5c(c4)C(C)(C)CN5C4CCN(CCO)CC4)cc3)c2)cn1 [Example 13, 2-amino-N-{(1S,2S)-2-[(4-{1-[1-(2-hydroxyethyl)piperidin-4-yl]-3,3-dimethyl-2,3-dihydro-1H-indol-5-yl}phenyl)methoxy]cyclopentyl}-5-(1-methyl-1H-pyrazol-4-yl)pyridine-3-carboxamide]

IC50 (human AXL (473-end)): 10 to 100 nM | IC50 (human MER (528-end)): < 10 nM | IC50 (human TYRO3 (455-end)): > 1000 nM
SMILES: Cn1cc(-c2cnc(N)c(C(=O)N[C@H]3COC[C@@H]3OCc3ccc(-c4ccc5c(ccn5C5CCN(CCO)CC5)c4)cc3)c2)cn1 [Example 14, 2-amino-N-{(3S,4R)-4-[(4-{1-[1-(2-hydroxyethyl)piperidin-4-yl]-1H-indol-5-yl}phenyl)methoxy]oxolan-3-yl}-5-(1-methyl-1H-pyrazol-4-yl)pyridine-3-carboxamide]
